Assay results published in patent US20230341377A1, “DISCONNECTION AGENTS” (DC Europa Limited, priority 2020, published 2023).

Experiments:
[1] = test system: Hs578 cell line for human breast cancer, U373 cell line of human glioblastoma, and HepG2 hepatocellular carcinoma cells; test: SMS assay (small molecule sharing), cell dye-sharing between cancer cells, cell lines pooled; format: cell-based; conditions: for effect on cell dye-sharing in the SMS assay: concentration range of 0.1 to 30 μM; for inhibition of cell dye-sharing in the SMS assay: various doses that are not cytotoxic, in one or more cell lines
Excerpt: (§1) The SMS assay was developed to assess the transfer of cell dye (for example the acetoxymethyl [AM]-based Calcein AM), between cancer cells. The SMS assay can be applied to any cell lines forming tumour networks such as tumour microtubes (TM) or tunneling nanotubes (TNT), which enable the transfer of molecules across cells. The SMS assay can be used to assess networking capabilities of any cancer cell lines including HepG2 hepatocellular carcinoma cells, Hs578T cell line for human breast cancer, and U373 cell line for human glioblastoma.
(§2) The SMS assay is illustrated in FIG. 1. For the SMS assay, two sets of cells are stained with the cell dye of choice and a customary cell tracker dye (for example cell tracker blue) using established staining techniques (steps 1 and 2). Each set of cells are then co-incubated with the compound of interest to assess its capabilities to modulate the cells small molecule sharing characteristics (step 3). Then the two sets of cells are combined on a plate, for example at a ratio of 1:1, and cultured in the presence of the compound of interest (Step 4).
(§3) Finally, live cells are evaluated for viability and analyzed by flow cytometry for the uptake of cell dye in the […] cells (Step 5). The comparison of cell tracker uptake against positive and negative control enables the assessment of the compound's ability to modulate the tumour networks including those formed by TM and TNTs
(§4) The SMS assay has been applied to assess the modulation of network sharing capabilities of Protein Kinase C Modulators (PKCm) at various concentrations in the Hs578 cell line for human breast cancer, U373 cell line of human glioblastoma, and HepG2 hepatocellular carcinoma cells. PBS vehicle was used as negative control and the PKCm PHORBOL 12-MYRISTATE 13-ACETATE (PMA) at a concentration of 5 nM was used as the positive control.
(§5) FIG. 2A and FIG. 2B show the percentage of cell tracker cells that were accepting the cell dye transfer from separately stained donor cells according to the SMS assay of Example. The percentage of acceptor cells detected is shown in comparison to vehicle (upper horizontal line) and PMA at 5-10 nM concentration (lower horizontal line). Active PKCm in the SMS assay (FIG. 2A) show a decrease in acceptor cells relative to vehicle at certain concentration. […] The upper limit of the tested concentrations was determined as the maximal non-cytotoxic dose.

[2] = test system: Hs578T cells; test: SMS assay in Hs578T cells; format: cell-based, human; conditions: versus vehicle and PMA (5 nM), FIG. 2A, 2B, 2D, 2E
Excerpt: as §1, §2, §3, §4, §5

[3] = biological target: T1, PKCε (Homo sapiens, UniProt Q02156); design: key: +—activation; ++—strong activation; conditions: nPKCs, gene PRKCE; cited from earlier work
T1 sequence (Q02156 1-737): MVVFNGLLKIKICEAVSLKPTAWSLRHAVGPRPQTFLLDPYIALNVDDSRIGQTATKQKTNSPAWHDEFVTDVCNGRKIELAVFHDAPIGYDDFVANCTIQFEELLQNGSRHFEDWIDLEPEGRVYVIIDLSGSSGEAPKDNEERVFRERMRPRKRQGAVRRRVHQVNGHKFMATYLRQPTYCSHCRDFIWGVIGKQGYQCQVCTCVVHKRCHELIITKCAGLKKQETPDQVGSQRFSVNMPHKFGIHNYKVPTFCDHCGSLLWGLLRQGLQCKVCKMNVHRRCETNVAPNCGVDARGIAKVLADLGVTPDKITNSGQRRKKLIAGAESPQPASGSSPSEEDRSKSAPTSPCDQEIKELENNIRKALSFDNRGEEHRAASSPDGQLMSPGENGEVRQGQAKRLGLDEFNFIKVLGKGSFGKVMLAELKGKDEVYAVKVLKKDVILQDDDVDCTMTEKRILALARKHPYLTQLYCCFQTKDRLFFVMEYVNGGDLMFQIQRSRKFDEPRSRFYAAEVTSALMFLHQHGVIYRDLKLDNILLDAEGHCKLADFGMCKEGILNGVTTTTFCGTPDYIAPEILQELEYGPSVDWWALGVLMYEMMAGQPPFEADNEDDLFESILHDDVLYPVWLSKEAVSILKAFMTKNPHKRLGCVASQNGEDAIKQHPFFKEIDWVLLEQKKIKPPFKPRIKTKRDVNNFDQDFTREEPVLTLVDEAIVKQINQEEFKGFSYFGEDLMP

[4] = test system: PKCβI/PKCβII; design: key: +—activation; ++—strong activation; conditions: cited from earlier work; for activation of PKCβI/PKCβII: cPKCs, gene PRKCB
[5] = test system: HepG2 cells; test: SMS assay in HepG2 cells; format: cell-based, human; conditions: versus vehicle and PMA (10 nM), FIG. 2C
Excerpt: as §1
(§6) The SMS assay is illustrated in FIG. 1. For the SMS assay, two sets of cells are stained with the cell dye of choice and a customary cell tracker dye (for example cell tracker blue) using established staining techniques (steps 1 and 2). […]
(§7) Finally, live cells are evaluated for viability and analyzed by flow cytometry for the uptake of cell dye in the flow tracker-stained cells (Step 5). […]
as §5, with “line).” for “line). Active PKCm in the SMS assay (FIG. 2A) show a decrease in acceptor cells relative to vehicle at certain concentration.”

[6] = biological target: PKCα (Homo sapiens, UniProt P17252); design: key: +—activation; ++—strong activation; conditions: cPKCs, gene PRKCA; cited from earlier work
[7] = biological target: PKCδ (Homo sapiens, UniProt Q05655); design: key: +—activation; ++—strong activation; conditions: nPKCs, gene PRKCD; cited from earlier work
Chain of PKCδ (Q05655 whole entry): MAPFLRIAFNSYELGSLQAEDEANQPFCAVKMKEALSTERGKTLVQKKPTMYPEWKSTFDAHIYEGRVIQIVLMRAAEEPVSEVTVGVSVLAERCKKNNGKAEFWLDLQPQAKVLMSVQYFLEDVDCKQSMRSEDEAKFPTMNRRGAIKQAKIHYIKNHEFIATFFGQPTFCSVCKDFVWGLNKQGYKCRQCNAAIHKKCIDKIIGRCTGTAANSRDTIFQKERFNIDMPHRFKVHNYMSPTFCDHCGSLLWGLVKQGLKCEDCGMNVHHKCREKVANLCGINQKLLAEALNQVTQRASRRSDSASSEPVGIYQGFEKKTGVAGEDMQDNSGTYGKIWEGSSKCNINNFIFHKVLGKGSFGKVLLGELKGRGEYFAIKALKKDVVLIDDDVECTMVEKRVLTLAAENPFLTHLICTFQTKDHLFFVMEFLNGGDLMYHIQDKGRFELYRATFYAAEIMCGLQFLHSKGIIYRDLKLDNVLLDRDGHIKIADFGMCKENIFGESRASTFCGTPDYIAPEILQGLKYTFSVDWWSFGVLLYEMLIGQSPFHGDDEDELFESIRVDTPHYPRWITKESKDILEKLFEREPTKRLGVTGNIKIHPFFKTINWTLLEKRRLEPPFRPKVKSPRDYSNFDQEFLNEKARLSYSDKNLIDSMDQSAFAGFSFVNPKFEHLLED

[8] = biological target: PKCγ (Homo sapiens, UniProt P05129); design: key: +—activation; ++—strong activation; conditions: cPKCs, gene PRKCG; cited from earlier work
[9] = biological target: PKCη (Homo sapiens, UniProt P24723); design: key: +—activation; ++—strong activation; conditions: nPKCs, gene PRKCH; cited from earlier work
Chain of PKCη (P24723 whole entry): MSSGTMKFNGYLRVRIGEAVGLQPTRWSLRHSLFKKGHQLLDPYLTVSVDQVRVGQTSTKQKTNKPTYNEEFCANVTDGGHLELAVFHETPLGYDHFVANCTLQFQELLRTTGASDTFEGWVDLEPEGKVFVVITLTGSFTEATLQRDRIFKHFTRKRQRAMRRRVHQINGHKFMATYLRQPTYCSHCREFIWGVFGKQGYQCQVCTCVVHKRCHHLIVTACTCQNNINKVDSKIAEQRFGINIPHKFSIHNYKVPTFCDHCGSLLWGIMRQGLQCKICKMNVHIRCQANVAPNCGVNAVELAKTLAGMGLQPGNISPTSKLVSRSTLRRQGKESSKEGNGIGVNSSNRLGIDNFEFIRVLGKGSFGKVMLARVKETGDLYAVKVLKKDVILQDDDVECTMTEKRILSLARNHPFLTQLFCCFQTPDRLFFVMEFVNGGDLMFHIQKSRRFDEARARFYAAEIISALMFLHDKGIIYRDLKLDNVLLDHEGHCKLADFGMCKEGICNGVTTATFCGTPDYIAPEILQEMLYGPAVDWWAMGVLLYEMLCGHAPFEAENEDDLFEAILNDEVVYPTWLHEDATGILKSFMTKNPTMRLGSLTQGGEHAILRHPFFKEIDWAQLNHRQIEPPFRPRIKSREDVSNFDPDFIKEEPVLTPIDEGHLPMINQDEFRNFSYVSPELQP

[10] = biological target: PKCθ (Homo sapiens, UniProt Q04759); design: key: +—activation; ++—strong activation; conditions: nPKCs, gene PRKCQ; cited from earlier work
Chain of PKCθ (Q04759 whole entry): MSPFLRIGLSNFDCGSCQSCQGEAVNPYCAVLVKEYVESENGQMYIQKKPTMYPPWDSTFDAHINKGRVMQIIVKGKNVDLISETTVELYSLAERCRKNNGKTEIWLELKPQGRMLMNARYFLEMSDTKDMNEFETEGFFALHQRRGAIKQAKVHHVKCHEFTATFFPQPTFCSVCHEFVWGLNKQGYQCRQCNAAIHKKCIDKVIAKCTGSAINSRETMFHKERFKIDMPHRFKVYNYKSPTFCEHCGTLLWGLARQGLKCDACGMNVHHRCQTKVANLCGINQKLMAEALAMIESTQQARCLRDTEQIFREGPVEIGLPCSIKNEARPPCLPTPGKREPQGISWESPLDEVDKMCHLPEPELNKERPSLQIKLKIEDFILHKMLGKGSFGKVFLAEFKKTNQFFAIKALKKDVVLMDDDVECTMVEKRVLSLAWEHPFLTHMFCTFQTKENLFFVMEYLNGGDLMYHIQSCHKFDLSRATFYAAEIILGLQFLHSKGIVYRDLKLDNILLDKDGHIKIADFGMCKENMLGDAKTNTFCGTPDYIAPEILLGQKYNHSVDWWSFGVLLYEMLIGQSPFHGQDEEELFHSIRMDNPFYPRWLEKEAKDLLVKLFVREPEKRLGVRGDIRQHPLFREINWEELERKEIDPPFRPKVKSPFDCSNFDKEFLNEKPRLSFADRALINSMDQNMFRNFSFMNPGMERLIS

[11] = test system: U373 cells; test: SMS assay in U373 cells; format: cell-based, human; conditions: versus vehicle and PMA (10 nM), FIG. 2C
Excerpt: as §1, §6, §7
as §5, with “line).” for “line). Active PKCm in the SMS assay (FIG. 2A) show a decrease in acceptor cells relative to vehicle at certain concentration.”

Row | Compound | effect on cell dye-sharing in the SMS assay [1] | cell dye-sharing in the SMS assay (percentage of acceptor cells) [2] | inhibition of cell dye-sharing in the SMS assay [1] | activation of PKCε [3] | activation of PKCα [6] | activation of PKCβI/PKCβII [4] | activation of PKCδ [7] | activation of PKCγ [8] | further results
1 | CCCCCCCCCCNc1cc(CO)c2cc[nH]c2c1 [6-(N-Decylamino)-4-Hydroxymethylindole] | did not have any effect | not interfering with cell dye-sharing |  |  |  |  |  |  | 
2 | CCC/C=C/C=C/C(=O)O[C@H]1/C(=C/C(=O)OC)C[C@H]2C[C@H]([C@@H](C)O)OC(=O)C[C@H](O)C[C@@H]3C[C@H](OC(C)=O)C(C)(C)[C@](O)(C[C@@H]4C/C(=C/C(=O)OC)C[C@H](/C=C/C(C)(C)[C@]1(O)O2)O4)O3 [Bryostatin 1] |  |  | marked inhibition of cell dye-sharing | + | + |  |  |  | activation of PKCβI ([4]; βI only, activation and translocation in transfected CHO cells (Wender 2011)): + (βI); cell dye-sharing in the SMS assay (percentage of acceptor cells) [5]: inhibition of cell dye-sharing
3 | CCCCCC1CC1CC1CC1CCCCCCCC(=O)O (centres unmarked) [FR236924] | did not have any effect | not interfering with cell dye-sharing |  |  |  |  |  |  | 
4 | CC(C)[C@H]1C(=O)N[C@H](CO)Cc2c[nH]c3cccc(c23)N1C [Indolactam V] |  | inhibition of cell dye-sharing | marked inhibition of cell dye-sharing | + | + | ++ | ++ | + | activation of PKCη [9]: +
5 | C/C=C(/C)C(=O)O[C@H]1C(C)=C[C@]23C(=O)[C@@H](C=C(CO)[C@@H](O)[C@]12O)[C@H]1[C@@H](C[C@H]3C)C1(C)C [Ingenol-3-angelate] | did not have any effect |  |  | + | + | + | + | + | disconnection of tumour cell types in the assay for disconnection ([1]; several different tumour cell types): does not disconnect
6 | CCCCCCCCCCCCCC(=O)O[C@@H]1[C@@H](C)[C@@]2(O)[C@@H](C=C(CO)C[C@]3(O)C(=O)C(C)=C[C@@H]23)[C@@H]2C(C)(C)[C@]12OC(C)=O [PMA, 12-O-tetradecanoyl-phorbol-13-acetate] |  | inhibition of cell dye-sharing | marked inhibition of cell dye-sharing | + | + | + | + | + | activation of PKCθ [10]: +; activation of PKCη [9]: +
7 | O=S(=O)(NCCCCCCc1ccccc1)c1cccc2c(Cl)cccc12 [SC-9] | did not have any effect | not interfering with cell dye-sharing |  |  |  |  |  |  | 
8 | CCC/C=C/C=C/C(=O)O[C@H]1/C(=C/C(=O)OC)C[C@H]2C[C@H]([C@@H](C)O)OC(=O)C[C@H](O)C[C@@H]3C[C@H](OC(C)=O)C(C)(C)[C@](O)(C[C@@H]4C/C(=C/C(=O)OC)C[C@H](/C=C/C(C)(C)[C@]1(O)O2)O4)O3 [bryostatin] |  | inhibition of cell dye-sharing |  |  |  |  |  |  | 
9 | Bryostatin 2 |  |  | marked inhibition of cell dye-sharing |  |  |  |  |  | cell dye-sharing in the SMS assay (percentage of acceptor cells) [11]: inhibition of cell dye-sharing
